Read-outs that look alike come from different tables or passages of the source.
Experiments:
[1] = system: viral replication in Vero E6 cells; conditions: viral replication in Vero E6 cells; cited from earlier work
[2] = target: T1, USP30 (Homo sapiens, UniProt Q70CQ3); experiment: biochemical; conditions: USP30 10 nM, Ub-rhodamine110
T1 construct: purchased LifeSensors, Inc. (Malvern, PA)

[3] = target: T2, SARS-CoV-2 PLpro (Severe acute respiratory syndrome coronavirus 2, UniProt P0DTD1); experiment: biochemical; conditions: PLpro 10 nM, ISG15-CHOP2
[4] = target: T2, SARS-CoV-2 PLpro; experiment: biochemical; conditions: PLpro 50 nM, Ub-rhodamine110
[5] = target: T3, UCHL1 (Homo sapiens, UniProt P09936); experiment: biochemical; conditions: UCHL1 10 nM, Ub-rhodamine110
T3 construct: purchased LifeSensors, Inc. (Malvern, PA)

[6] = system: SARS-CoV PLpro; conditions: cited from earlier work
[7] = in vitro; conditions: African green monkey, cytotoxicity, %cell viability
[8] = target: T4, USP8 (Homo sapiens, UniProt P40818); experiment: biochemical; conditions: USP8 10 nM, Ub-rhodamine110
T4 construct: USP2c, USP4, USP7, USP8c, USP15, USP30WT, and UCH-L1; purchased LifeSensors, Inc. (Malvern, PA)

[9] = target: PLpro from SARS-CoV-2 (Severe acute respiratory syndrome coronavirus 2, UniProt P0DTD1); experiment: biochemical; assay type: biochemical
[10] = system: SARS-CoV-2 isolate USA-WA1/2020; conditions: read-out: cytopathic effect, % cell viability, duplicate wells
[11] = target: T5, USP7 (Homo sapiens, UniProt Q93009); experiment: biochemical; conditions: USP7 5 nM, Ub-CHOP2
T5 construct: purchased LifeSensors, Inc. (Malvern, PA)

[12] = system: SARS-CoV-2 isolate USA-WA1/2020; experiment: microbe, parasite or virus in culture; conditions: duplicate wells
[13] = system: Vero E6 cells; conditions: African green monkey, 48 h
[14] = target: T6, USP2 (Homo sapiens, UniProt O75604); experiment: biochemical; conditions: USP2 10 nM, Ub-rhodamine110
T6 construct: USP2c, USP4, USP7, USP8c, USP15, USP30WT, and UCH-L1; purchased LifeSensors, Inc. (Malvern, PA)

[15] = target: T7, USP15 (Homo sapiens, UniProt Q9Y4E8); experiment: DUB selectivity assay, USP15 (Ub-rhodamine110); assay type: biochemical; conditions: USP15 1 nM, Ub-rhodamine110; read-out: IC50
T7 construct: purchased LifeSensors, Inc. (Malvern, PA)
T7 sequence (Q9Y4E8 1-981): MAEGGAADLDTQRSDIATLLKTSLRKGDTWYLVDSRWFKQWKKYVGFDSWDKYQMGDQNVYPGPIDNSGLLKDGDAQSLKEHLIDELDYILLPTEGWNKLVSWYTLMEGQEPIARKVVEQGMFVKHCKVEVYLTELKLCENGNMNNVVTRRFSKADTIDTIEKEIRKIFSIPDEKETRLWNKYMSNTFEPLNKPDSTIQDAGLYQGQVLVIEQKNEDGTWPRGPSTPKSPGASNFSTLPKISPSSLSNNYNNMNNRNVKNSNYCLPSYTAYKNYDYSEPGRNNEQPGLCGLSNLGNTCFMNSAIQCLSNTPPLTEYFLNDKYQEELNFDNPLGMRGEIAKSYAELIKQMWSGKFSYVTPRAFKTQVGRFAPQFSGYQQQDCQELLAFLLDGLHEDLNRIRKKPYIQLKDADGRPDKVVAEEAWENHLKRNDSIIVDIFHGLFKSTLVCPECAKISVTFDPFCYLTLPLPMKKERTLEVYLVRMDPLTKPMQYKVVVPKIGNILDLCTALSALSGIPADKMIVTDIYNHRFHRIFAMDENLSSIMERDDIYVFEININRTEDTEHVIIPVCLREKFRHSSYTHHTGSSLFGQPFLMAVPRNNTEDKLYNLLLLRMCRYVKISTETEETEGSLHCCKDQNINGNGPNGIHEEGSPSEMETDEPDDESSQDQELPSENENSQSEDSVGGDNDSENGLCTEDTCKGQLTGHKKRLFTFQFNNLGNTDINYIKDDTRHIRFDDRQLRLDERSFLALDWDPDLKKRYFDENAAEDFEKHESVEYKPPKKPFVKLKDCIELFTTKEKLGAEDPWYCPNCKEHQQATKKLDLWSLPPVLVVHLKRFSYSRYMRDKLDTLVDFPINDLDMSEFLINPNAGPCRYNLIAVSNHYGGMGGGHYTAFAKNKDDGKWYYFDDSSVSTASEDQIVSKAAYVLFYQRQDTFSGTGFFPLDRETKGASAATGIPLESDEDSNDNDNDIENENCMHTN

[16] = target: T8, USP4 (Homo sapiens, UniProt Q13107); experiment: DUB selectivity assay, USP4 (Ub-rhodamine110); assay type: biochemical; conditions: USP4 10 nM, Ub-rhodamine110; read-out: IC50
T8 construct: purchased LifeSensors, Inc. (Malvern, PA)
T8 sequence (Q13107 1-963): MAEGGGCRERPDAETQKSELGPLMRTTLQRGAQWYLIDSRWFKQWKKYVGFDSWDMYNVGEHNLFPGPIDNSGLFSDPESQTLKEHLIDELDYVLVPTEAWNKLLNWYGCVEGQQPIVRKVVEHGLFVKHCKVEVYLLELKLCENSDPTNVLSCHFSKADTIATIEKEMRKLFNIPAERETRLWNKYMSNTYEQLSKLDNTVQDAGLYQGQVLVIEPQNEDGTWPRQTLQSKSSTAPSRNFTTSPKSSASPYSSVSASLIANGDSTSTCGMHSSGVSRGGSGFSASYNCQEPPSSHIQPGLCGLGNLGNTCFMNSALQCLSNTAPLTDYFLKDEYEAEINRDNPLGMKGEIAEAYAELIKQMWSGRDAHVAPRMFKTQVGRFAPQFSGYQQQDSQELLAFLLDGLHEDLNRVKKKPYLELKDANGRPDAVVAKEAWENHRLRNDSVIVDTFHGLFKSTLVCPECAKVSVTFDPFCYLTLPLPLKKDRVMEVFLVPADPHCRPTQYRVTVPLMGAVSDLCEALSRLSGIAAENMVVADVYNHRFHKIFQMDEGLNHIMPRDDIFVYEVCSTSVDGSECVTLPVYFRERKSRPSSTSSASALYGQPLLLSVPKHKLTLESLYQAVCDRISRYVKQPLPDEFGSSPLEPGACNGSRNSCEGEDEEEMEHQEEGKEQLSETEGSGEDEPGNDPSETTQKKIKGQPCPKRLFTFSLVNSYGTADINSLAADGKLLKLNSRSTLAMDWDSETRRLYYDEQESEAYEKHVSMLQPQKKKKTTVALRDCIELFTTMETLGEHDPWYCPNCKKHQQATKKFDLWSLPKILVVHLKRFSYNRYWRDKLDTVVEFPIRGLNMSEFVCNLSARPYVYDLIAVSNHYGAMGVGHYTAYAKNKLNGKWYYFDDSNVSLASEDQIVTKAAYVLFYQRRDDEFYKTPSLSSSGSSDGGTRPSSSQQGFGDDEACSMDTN

T4 sequence (P40818 777-1109): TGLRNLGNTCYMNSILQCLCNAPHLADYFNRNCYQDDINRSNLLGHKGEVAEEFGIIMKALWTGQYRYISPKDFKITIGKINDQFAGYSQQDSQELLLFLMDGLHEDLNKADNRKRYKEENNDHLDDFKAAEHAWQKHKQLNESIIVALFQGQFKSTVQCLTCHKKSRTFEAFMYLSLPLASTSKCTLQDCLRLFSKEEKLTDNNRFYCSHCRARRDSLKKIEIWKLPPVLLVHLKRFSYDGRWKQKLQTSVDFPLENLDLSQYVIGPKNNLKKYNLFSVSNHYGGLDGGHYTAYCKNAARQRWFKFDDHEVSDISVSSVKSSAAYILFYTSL
T6 sequence (O75604 267-599): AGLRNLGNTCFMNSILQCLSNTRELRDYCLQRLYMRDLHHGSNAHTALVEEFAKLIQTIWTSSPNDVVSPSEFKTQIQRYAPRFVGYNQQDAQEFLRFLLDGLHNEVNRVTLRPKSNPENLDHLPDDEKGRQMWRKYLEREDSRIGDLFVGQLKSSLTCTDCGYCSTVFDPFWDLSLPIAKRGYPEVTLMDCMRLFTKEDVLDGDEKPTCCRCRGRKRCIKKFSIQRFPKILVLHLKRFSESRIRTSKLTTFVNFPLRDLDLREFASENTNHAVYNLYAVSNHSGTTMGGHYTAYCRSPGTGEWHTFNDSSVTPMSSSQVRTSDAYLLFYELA
T1 sequence (Q70CQ3 whole entry): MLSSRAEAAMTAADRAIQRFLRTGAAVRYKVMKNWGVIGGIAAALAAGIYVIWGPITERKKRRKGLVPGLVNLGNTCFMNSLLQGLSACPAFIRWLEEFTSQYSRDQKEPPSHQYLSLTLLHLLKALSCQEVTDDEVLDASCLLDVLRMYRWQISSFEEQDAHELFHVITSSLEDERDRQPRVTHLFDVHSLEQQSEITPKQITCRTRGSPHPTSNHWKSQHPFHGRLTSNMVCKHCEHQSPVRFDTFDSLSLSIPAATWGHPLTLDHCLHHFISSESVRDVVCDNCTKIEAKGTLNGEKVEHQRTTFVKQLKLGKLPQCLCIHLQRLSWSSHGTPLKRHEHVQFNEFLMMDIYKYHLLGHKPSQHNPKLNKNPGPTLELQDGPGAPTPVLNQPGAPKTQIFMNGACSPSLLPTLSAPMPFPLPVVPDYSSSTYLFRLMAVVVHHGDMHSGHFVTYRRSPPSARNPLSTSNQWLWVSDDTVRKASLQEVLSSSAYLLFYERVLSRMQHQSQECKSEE
T3 sequence (P09936 whole entry): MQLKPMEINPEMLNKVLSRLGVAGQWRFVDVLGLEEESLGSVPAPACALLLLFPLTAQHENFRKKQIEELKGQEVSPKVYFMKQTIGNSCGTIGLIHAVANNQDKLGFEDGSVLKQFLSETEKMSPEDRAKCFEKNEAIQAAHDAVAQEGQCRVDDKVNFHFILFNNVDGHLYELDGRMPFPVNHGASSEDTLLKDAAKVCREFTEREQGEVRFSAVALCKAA
T5 sequence (Q93009 whole entry): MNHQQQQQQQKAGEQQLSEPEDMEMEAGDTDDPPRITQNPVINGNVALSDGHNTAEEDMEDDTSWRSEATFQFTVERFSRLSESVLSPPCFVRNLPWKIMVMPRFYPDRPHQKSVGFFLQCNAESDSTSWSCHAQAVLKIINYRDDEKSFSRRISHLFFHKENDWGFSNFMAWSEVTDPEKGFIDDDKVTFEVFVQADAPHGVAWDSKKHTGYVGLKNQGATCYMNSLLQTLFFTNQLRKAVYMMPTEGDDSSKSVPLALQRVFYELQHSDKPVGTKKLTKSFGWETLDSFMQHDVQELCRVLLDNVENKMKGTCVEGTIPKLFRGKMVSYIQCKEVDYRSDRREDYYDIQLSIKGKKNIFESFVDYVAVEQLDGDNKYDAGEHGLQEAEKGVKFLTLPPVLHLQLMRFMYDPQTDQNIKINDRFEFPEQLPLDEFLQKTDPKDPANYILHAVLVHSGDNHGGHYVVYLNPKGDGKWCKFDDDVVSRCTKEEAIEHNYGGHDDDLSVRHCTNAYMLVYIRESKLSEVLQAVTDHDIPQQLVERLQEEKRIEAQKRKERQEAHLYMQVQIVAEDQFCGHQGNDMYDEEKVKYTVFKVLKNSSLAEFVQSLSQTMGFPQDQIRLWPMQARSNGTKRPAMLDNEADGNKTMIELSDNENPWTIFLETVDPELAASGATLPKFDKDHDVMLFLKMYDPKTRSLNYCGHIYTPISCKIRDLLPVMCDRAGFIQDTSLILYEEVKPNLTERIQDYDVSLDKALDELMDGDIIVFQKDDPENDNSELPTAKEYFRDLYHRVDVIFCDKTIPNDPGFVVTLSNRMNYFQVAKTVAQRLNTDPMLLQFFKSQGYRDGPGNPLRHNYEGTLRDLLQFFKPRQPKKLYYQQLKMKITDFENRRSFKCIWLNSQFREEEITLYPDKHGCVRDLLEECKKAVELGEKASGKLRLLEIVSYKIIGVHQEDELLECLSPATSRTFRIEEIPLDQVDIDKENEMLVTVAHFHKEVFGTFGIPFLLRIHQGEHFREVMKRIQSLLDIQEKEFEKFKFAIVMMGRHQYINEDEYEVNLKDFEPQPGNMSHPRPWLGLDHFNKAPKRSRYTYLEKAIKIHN

CC(=O)Nc1ccc(C)c(C(=O)N[C@H](C)c2cccc3ccccc23)c1 [Compound 15, (R)-5-acetamido-2-methyl-N-(1-(naphthalen-1-yl)ethyl)benzamide]
EC50 [1]: 13.1 µM
IC50 [2]: > 30 µM
Hill slope [3]: 0.969
IC50 [3]: > 30 µM
Hill slope [4]: 0.376
IC50 [4]: > 30 µM
IC50 [5]: > 30 µM
IC50 [6]: 2.6 µM
viability at 48 h, 2.08 µM [7]: 85.5%
viability at 48 h, 8.33 µM [7]: 85.8%
viability at 48 h, 16.67 µM [7]: 81.3%
viability at 48 h, 33.33 µM [7]: 64.9%
IC50 [8]: > 30 µM
remaining activity at 0.02 µM ([9]; 0.5 h, inhibitor 0.02 uM): 115%
remaining activity at 0.06 µM ([9]; 0.5 h, inhibitor 0.06 uM): 104%
remaining activity at 0.2 µM ([9]; 0.5 h, inhibitor 0.20 uM): 110%
remaining activity at 2.01 µM ([9]; 0.5 h, inhibitor 2.01 uM): 61.8%
remaining activity at 6.34 µM ([9]; 0.5 h, inhibitor 6.34 uM): 56.9%
remaining activity at 20 µM ([9]; 0.5 h, inhibitor 20.00 uM): 26.7%
IC50 ([9]; after 30-min incubation, purified PLpro, Z-RLRGG-AMC substrate): 6.2 µM
inhibition ([10]; [inhibitor] 8.33 uM, 8.33 µM): 3.31%
inhibition ([10]; [inhibitor] 16.67 uM, 16.67 µM): 6.9%
IC50 [11]: > 30 µM
inhibition at 8.33 µM ([12]; Severe acute respiratory syndrome coronavirus 2, Vero C1008, read-out: cytopathic effect, % cell viability, [inhibitor] 8.33 uM): 5.51%
inhibition at 16.67 µM ([12]; Severe acute respiratory syndrome coronavirus 2, Vero C1008, read-out: cytopathic effect, % cell viability, [inhibitor] 16.67 uM): 8.63%
cytotoxicity, %cell viability ([13]; 2.08 µM): 75.89%
cytotoxicity, %cell viability ([13]; 8.33 µM): 83.23%
cytotoxicity, %cell viability ([13]; 16.67 µM): 80.07%
cytotoxicity, %cell viability ([13]; 33.33 µM): 59.25%
IC50 [14]: > 30 µM
IC50 [15]: > 30 µM
IC50 [16]: > 30 µM

From publication PMC10044120, “Potent and selective covalent inhibition of the papain-like protease from SARS-CoV-2” (Nature Communications, 2023)
